Measurements taken from the NIST ThermoML archive (doi:10.1021/acs.jced.7b00704).
± gives the expanded uncertainty stated by the source.

Assays:
[1] = refractive index (Na D-line) (dimensionless); settings: Liquid, Standard Abbe refractometry
[2] = Liquid, Ebulliometric method (Recirculating still)

| vapor or sublimation pressure ([2]; 347.58 K) [kPa] | vapor or sublimation pressure ([2]; 327.63 K) [kPa] | SMILES | refractive index ([1]; 293.15 K, 93 kPa) | refractive index ([1]; 298.15 K, 101.33 kPa) | vapor or sublimation pressure ([2]; 360.73 K) [kPa] | vapor or sublimation pressure ([2]; 372.05 K) [kPa] |
| --- | --- | --- | --- | --- | --- | --- |
|  |  | COC(=O)OC [dimethyl carbonate] | 1.3688 ± 0.0004 | 1.3664 ± 0.00042 | 93.13 ± 0.96 |  |
| 93.13 ± 0.95 |  | CCOC(C)=O [ethyl acetate] | 1.3724 ± 0.0004 | 1.3698 ± 0.00038 |  |  |
|  | 93.13 ± 0.96 | COC(C)=O [methyl ethanoate] | 1.3615 ± 0.0004 | 1.35872 ± 0.00042 |  |  |
|  |  | CCCOC(C)=O [propyl ethanoate] | 1.3843 ± 0.0005 | 1.38181 ± 0.00054 |  | 93.13 ± 0.97 |
